Measurements from patent USRE43879E1, “Use of the dextrogyral enantiomer of milnacipran for the preparation of a drug” (priority 2003, dated 2012).
Like-named read-outs stand apart in the source and are kept apart here.

Tests used:
[1] = Pharmacokinetic study in man (12 healthy subjects), racemate or one enantiomer alone; format: in vivo; details: human, plasma; for half-life: read-out: T½ (converted)
Description: A pharmacokinetic study in man involving 12 healthy subjects was performed by administering the racemate or one of the two enantiomers alone.

3H-serotonin uptake = target: T1, 3H-serotonin uptake (Rattus norvegicus, UniProt P31652); assay: Serotonin uptake, rat hypothalamus P2 fraction (synaptosomes); format: biochemical
T1 construct: the hypothalamus was removed, weighed and homogenised on a Dounce; from tissue
T1 sequence (P31652 whole entry): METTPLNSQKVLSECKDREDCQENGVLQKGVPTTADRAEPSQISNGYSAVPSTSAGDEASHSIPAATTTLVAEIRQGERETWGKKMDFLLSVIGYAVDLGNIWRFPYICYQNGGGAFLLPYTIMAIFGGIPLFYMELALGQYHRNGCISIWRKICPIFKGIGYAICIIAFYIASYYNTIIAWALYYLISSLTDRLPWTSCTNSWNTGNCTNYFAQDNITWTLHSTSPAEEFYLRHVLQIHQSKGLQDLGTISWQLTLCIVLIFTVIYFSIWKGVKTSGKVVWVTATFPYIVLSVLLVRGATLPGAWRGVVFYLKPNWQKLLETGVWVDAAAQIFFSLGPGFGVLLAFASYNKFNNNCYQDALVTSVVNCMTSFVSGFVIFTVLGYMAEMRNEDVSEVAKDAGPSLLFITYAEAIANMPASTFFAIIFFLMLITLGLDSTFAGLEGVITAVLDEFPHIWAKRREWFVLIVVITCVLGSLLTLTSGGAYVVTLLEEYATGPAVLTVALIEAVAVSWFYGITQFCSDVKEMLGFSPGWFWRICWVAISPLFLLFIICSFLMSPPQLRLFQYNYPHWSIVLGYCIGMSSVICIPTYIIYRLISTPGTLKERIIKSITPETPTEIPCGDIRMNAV
Description: After homogenisation of brain tissue in a sucrose solution, the presynaptic terminals break away from the axon and close to form synaptosomes obtained by subcellular fractionation.
Male Sprague-Dawley (Janvier) rats weighing 180-200 g were used.
This homogenate was centrifuged for 10 min at 1,000 g (2,400 rpm-Hettich, Rotenta). […] The residue (called the P2 fraction) was recovered in sucrose at a concentration of 50 mg/ml.
Exactly 5 min after the start of incubation, the reaction was stopped by vacuum filtration on Whatman GF/F filters (predilution with 2.5 ml of chilled buffer then rinsing with 3 times 2.5 ml).
The IC50 were determined by transposing the percentages of inhibition onto a graph in relation to the log of the product concentration (6 concentrations in duplicate).

3H-paroxetine binding = target: T2, 3H-paroxetine binding (Rattus norvegicus, UniProt P31652); assay: Paroxetine binding, rat hypothalamus membranes
T2 construct: the hypothalamus was removed, weighed and homogenised on a Dounce; from tissue
T2 sequence (P31652 whole entry): as above
Description: 2.1.3. Paroxetine Binding
Male Sprague-Dawley rats (Janvier) weighing 180-200 g were used. The hypothalami of several rats were collected and homogenised in 5 ml of chilled buffer (50 mM Tris-HCL, 120 mM NaCl, 5 mM KCl, pH 7.5) on a Dounce, and the homogenate was centrifuged at 30 000 g (27 000 rpm-Beckman. L5-50E, T40 rotor) for 10 min. The residue obtained was recovered in 5 ml of buffer and re-centrifuged under the same conditions. The new residue was recovered in the same buffer and finally re-homogenised on a Dounce at a tissue concentration of 10 mg/ml. The membrane suspension (100 μl) was incubated with 3H-paroxetine (NEN, France, 28.6 Ci/mmol) at a concentration (final) of 0.1 nM, at 20° C., in a final volume of 1 ml for 2 hr. After 2 hr incubation, the reaction was stopped by vacuum filtration on Whatman GF/F filters pre-treated in a 0.05% solution of polyethylenimine 30 min beforehand (prediluted with 4 ml of chilled buffer, then the tube was rinsed with 2 times 4 ml). Radioactivity was measured by liquid scintillation spectrometry (Packard, Tricarb 4640) using Emulsifier-Safe (Packard) as the scintillating agent.
Specific ^3H-paroxetine binding was defined as the difference between total binding and that remaining in the presence of 10 μM of fluoxetine.
The IC50 were determined by transposing the percentages of inhibition onto a graph in relation to the log of the concentration of the product (6 concentrations in duplicate).

primary rat hepatocytes = assay: Safe-Hit genomic test of predictive toxicology (Toxicity Index) on primary rat hepatocytes; format: cell-based; details: Sprague-Dawley, rat, 16 h, 100 μM
Source text: After treatment of the primary rat hepatocytes in culture, the RNA was extracted in order to generate labelled complementary-DNA probes which were then hybridised on a membrane containing 682 alternatively-spliced fragments specific to cell stress. A Toxicity Index was obtained for each of the products by comparing the hybridisation profile of the treated cells with that of the untreated cells.
Safe-Hit allows molecules within a chemical series to be ranked according to a Toxic Index, determined after the following basic steps (systematically performed in duplicate for each product): • treatment of the cells lines with the various products at three different concentrations, deduced from a preliminary cytotoxicology test (MTT-assay): a reference concentration corresponding to 80% cell viability, a concentration 10-fold higher—when possible—and a concentration 10-fold lower, • preparation of total RNA and of the corresponding radio-labelled cDNA probes, • hybridisation of the cDNA probes: the Safe-Hit macroarray contains 682 independent clones, corresponding to alterations in gene splicing induced by overexpression of WTp53 (p53 is the most ubiquitous “mediator” of cell stress, chosen for the development of this methodology), • acquisition and determination of the Toxicity Index. 4.1.2. Cells
The cells used in the study (preliminary MTT-assay of cytotoxicity and the main test) are cryopreserved hepatocytes from Sprague-Dawley rats in primary culture (batches Hep184005 and Hep184006-Biopredic), cultured under standard conditions.
The cells are seeded and cultured for 16 hours with each product, at the three concentrations chosen on the basis of the preliminary MTT-assay; two controls (untreated cells in solvent alone) are added to the series.
The results of the two Safe-Hit analyses are then compared and combined to assess the potential toxicity of the various compounds tested. Two parameters that can be modified by the user are involved in the calculation of the Toxicity Index: • Background Threshold (BT) smoothes out weak signals, close to background noise and not attributable to significant gene expression. […] The value of this parameter is usually 2 or less than 2 in order to obtain relevant results. […]
Toxicity Indices (TI) were determined as described above. […] Two separate analyses were performed using two levels of differentiation (Induction Factor-IF) in relation to the untreated controls: • a factor of at least 1.7 in relation to the untreated controls. This factor of 1.7 times represents the weakest value that allows an index not to be obtained in relation to the two untreated controls. • a factor of at least 2 in relation to the untreated controls. This factor of 2 times allows the most robust signals to be taken into account. 4.3.1. Induction Factor of 1.7 in Relation to Untreated Control (Table 7)

[2] = in vivo
Source text: In animals, the pharmacokinetics of each enantiomer were studied following administration of the racemate or of one single enantiomer.

3H-norepinephrine uptake = 3H-norepinephrine uptake (Rattus norvegicus, UniProt Q63380); assay: biochemical
3H-norepinephrine uptake, sequence (Q63380 1-617): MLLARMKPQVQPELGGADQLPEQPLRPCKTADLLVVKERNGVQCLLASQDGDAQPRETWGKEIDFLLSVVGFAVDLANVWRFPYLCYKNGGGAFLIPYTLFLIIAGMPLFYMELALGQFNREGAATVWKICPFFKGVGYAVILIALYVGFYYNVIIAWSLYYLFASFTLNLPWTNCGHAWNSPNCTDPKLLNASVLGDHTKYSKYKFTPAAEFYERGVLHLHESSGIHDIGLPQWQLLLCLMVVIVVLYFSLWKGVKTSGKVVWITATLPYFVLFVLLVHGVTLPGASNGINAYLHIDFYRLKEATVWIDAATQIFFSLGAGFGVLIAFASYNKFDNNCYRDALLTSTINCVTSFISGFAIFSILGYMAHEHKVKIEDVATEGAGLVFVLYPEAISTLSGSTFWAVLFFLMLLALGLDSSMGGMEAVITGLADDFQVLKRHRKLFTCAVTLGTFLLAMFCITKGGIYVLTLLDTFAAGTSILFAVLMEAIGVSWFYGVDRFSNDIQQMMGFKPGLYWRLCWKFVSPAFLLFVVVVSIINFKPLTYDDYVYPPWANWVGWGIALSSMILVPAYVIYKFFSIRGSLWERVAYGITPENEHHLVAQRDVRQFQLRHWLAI
Description: Norepinephrine Uptake by a Homogenate (P2) of Rat Hypothalamus.
Male Sprague-Dawley rats, from 200 to 300 g, were stunned and decapitated, and the hypothalami were rapidly removed. Two hypothalami are homogenised in 4 ml of sucrose 0.32 M on a Potter S by 16 complete passes back and forth at 800 rpm, then centrifuged for 10 min at 1,000 g to eliminate cell debris. The supernate is centrifuged for 20 min at 10,000 g and the P2 thus obtained is recovered in 4 ml of sucrose 0.32 M, and homogenised on a Dounce.
^3H-(1)-NE: 13 Ci/mmol (Amersham) is used.
Uptake takes place in a phosphate buffer (containing 8 g of NaCl, 1.21 g of K2HPO4 and 0.34 g of KH2PO4 per liter) pre-oxygenated 30 min before use with a mixture of O2/CO2 (95%/5%).
In 5-ml plastic tubes placed in a water bath at 37° C., the following are introduced: • 100 μl of buffer or inhibitor, • 700 μl of buffer (containing 25 μM pargyline), • 100 μl of P2.
After temperature balance, the reaction begins by the addition of 100 μl of ^3H-NE, 50 nM final concentration.
Exactly 10 min later, the reaction is stopped by adding 2.5 ml of chilled buffer and filtering through GF/F filters. The tube is then rinsed once and the filter once with 2.5 ml of chilled buffer. The filter is then introduced into a Beckman mini-vial and, after adding 3 ml of Instagel (Packard) liquid scintillator, radioactivity is measured with a Tricarb Packard scintillation counter.
Non-specific uptake (NS) is measured as the presence of DMI 10^−5 M.
The percentage of inhibition is calculated using the formula:
The IC50 is determined graphically on the mean curve of percentage of inhibition (4 assays) in relation to the log of the concentration of inhibitor.

[3] = enantiomer administered alone (25 mg)
[4] = enantiomer assayed after F2207 (50 mg)

CCN(CC)C(=O)[C@@]1(c2ccccc2)C[C@H]1CN [F2695, Z-(1S,2R)-2-(aminomethyl)-N,N-diethyl-1-phenyl cyclopropane carboxamide]
AUC(0-inf) [1, 3]: 2.87 µM·h | Cmax [1, 3]: 216 nM | Tmax [1, 3]: 3.08 h | half-life [1, 3]: 9.38 h | AUC(0-inf) [1, 4]: 2.9 µM·h | Cmax [1, 4]: 214 nM | Tmax [1, 4]: 3.42 h | half-life [1, 4]: 9.28 h | IC50 (3H-serotonin uptake): 46 nM | IC50 (3H-paroxetine binding): 60 nM | Clone Q11 (unk), regulation factor vs untreated control (primary rat hepatocytes): 1.81 | Number of down-regulated clones (Down) (primary rat hepatocytes): 1 | Number of up-regulated clones (Up) (primary rat hepatocytes): 1 | Plasma concentrations of the enantiomers compared ([2]; monkey): approximately equivalent | Plasma concentrations of the enantiomers compared ([2]; rat): approximately equivalent | IC50 (3H-norepinephrine uptake): 15 nM
